Molecular target: full-length ATR (Homo sapiens (Human), UniProt Q13535)
Assay: ATR Inhibition Assay (radioactive-phosphate incorporation)
Type: biochemical
Settings: read-out: ATR Ki
Method in brief: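 Full-length human ATR (5 nM) was assayed at 25 °C in 50 mM Tris/HCl pH 7.5, 10 mM MgCl2, 1 mM DTT, with 10 μM [γ-33P]ATP and 800 μM peptide, after 10-min compound preincubation. Reactions were stopped after 24 h, captured on phosphocellulose and counted; Ki(app) came from non-linear regression of initial rates.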

Chain of full-length ATR (Q13535 whole entry): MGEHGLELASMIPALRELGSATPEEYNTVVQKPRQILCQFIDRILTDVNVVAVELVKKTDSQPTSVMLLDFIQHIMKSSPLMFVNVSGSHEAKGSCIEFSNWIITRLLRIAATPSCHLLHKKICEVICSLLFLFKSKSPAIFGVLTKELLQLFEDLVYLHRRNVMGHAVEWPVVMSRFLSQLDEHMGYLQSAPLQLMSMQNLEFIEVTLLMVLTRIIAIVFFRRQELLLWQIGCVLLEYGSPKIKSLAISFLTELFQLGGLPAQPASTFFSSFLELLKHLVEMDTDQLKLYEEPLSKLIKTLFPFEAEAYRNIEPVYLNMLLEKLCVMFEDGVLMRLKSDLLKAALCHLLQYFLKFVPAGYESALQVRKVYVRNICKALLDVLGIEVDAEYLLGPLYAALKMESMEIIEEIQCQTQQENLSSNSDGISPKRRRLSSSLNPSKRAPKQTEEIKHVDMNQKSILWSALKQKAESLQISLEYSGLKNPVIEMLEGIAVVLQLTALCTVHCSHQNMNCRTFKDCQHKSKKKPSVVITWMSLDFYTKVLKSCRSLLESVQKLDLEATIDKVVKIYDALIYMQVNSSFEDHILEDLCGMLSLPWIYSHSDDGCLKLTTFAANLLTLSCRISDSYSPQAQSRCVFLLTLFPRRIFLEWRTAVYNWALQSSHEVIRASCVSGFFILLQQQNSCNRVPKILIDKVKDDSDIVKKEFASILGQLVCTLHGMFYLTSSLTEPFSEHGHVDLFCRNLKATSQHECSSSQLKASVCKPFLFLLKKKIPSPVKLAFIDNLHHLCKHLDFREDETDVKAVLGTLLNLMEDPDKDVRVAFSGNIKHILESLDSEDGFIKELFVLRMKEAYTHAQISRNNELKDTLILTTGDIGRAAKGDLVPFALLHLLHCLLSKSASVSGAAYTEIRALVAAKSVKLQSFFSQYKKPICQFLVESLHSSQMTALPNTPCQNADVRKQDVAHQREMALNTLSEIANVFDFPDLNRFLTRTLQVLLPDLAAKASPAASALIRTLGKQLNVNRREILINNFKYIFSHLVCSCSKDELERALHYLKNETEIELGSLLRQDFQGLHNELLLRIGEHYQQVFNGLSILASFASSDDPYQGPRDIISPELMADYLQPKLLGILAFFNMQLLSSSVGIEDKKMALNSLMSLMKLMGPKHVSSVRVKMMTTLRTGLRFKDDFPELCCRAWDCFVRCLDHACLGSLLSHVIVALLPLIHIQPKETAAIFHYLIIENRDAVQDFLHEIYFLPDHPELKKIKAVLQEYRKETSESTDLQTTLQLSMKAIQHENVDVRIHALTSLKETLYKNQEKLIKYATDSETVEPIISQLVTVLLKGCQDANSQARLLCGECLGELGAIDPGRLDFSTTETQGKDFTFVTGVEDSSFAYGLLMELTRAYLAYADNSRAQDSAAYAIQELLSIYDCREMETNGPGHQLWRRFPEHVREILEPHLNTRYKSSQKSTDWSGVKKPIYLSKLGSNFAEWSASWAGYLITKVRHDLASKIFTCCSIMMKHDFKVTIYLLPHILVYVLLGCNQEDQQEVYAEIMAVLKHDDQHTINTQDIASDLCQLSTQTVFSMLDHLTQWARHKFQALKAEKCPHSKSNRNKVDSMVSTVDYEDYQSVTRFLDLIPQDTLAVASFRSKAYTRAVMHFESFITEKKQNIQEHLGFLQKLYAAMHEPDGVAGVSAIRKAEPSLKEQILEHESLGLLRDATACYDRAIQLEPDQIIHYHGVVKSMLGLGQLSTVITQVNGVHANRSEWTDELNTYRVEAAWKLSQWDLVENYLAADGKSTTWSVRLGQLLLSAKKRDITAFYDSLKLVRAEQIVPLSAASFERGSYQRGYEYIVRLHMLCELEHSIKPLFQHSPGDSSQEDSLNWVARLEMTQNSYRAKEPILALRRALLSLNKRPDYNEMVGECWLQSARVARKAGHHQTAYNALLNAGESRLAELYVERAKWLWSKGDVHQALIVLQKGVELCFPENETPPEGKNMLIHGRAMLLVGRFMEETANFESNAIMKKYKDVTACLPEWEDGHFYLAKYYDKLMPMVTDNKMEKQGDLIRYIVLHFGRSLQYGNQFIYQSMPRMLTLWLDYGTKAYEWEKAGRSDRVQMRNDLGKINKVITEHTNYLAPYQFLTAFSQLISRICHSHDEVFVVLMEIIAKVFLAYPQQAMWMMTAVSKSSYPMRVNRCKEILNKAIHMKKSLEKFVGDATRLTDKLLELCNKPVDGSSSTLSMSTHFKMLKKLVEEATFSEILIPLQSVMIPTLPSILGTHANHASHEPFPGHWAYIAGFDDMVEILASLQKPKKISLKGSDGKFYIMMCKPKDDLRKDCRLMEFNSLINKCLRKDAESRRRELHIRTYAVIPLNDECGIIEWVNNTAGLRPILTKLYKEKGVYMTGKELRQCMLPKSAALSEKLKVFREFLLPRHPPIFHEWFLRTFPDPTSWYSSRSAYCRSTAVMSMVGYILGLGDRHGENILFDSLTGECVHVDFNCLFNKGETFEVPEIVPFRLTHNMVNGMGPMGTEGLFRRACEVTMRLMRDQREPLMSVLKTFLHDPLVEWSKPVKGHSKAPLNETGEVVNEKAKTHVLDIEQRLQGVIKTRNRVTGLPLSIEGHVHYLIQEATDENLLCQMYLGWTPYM

Row | SMILES | Ki
1 | CCOC(=O)N1CCN(C(=O)c2ccc(-c3cnc(N)c(-c4nnc(-c5ccccc5)o4)n3)cc2)CC1 [IA-11] | 10 to 100 nM
2 | Nc1ncc(-c2ccc(C(=O)NCCN3CCCC3)cc2)nc1C(=O)Nc1ccccc1 [Compound I-46, 3-amino-N-phenyl-6-(4-(2-(pyrrolidin-1-yl)ethylcarbamoyl)phenyl) pyrazine-2-carboxamide] | 100 to 5000 nM
3 | CC(C)NCc1ccc(-c2cc(-c3nc(-c4ccc(S(=O)(=O)C(C)C)cc4)cnc3N)on2)cc1 [IIA-8, 3-[3-[4-[(isopropylamino)methyl]phenyl]isoxazol-5-yl]-5-(4-isopropylsulfonylphenyl)pyrazin-2-amine] | ≤ 10 nM
4 | COc1cccc(-c2nnc(-c3nc(-c4ccc(C(=O)N(C)C)cc4)cnc3N)o2)c1 [IA-195, 4-[5-amino-6-[5-(3-methoxyphenyl)-1,3,4-oxadiazol-2-yl]pyrazin-2-yl]-N,N-dimethyl-benzamide] | 10 to 100 nM
5 | Nc1ncc(-c2ccc(C(=O)N3CCCNCC3)nc2)nc1-c1nnc(-c2ccccc2)o1 [IA-47] | ≤ 10 nM
6 | COc1ccc(NC(C)=O)cc1NC(=O)c1nc(-c2cccnc2)cnc1N [Compound I-100, 3-amino-N-(5-ethanamido-2-methoxyphenyl)-6-(pyridin-3-yl)pyrazine-2-carboxamide] | 100 to 5000 nM
7 | CN(C)C(=O)c1ccc(-c2cnc(N)c(-c3nc4ccccc4[nH]3)n2)cc1 [Compound I-124, 4-(5-amino-6-(1H-benzo[d]imidazol-2-yl)pyrazin-2-yl)-N,N-dimethylbenzamide] | 10 to 100 nM
8 | CNc1nnc(-c2nc(-c3ccc(C(=O)N(C)C)cc3)cnc2N)o1 [IA-33] | 100 to 5000 nM
9 | CN(C)C(=O)c1ccc(-c2cnc(N)c(-c3nnc(N4CCOCC4)o3)n2)cc1 [IA-45] | 100 to 5000 nM
10 | CC(=O)c1cccc(-c2cnc(N)c(-c3nnc(-c4ccccc4)o3)n2)c1 [IA-249, 1-[3-[5-amino-6-(5-phenyl-1,3,4-oxadiazol-2-yl)pyrazin-2-yl]phenyl]ethanone] | 10 to 100 nM
11 | Cc1ccc(-c2nnc(-c3nc(-c4ccc(C(=O)N(C)C)cc4)cnc3N)o2)cc1 [IA-263, 4-[5-amino-6-[5-(p-tolyl)-1,3,4-oxadiazol-2-yl]pyrazin-2-yl]-N,N-dimethyl-benzamide] | 10 to 100 nM
12 | Nc1ncc(-c2cccc3ncccc23)nc1-c1nnc(-c2ccccc2)o1 [IA-260, 3-(5-phenyl-1,3,4-oxadiazol-2-yl)-5-(5-quinolyl)pyrazin-2-amine] | 10 to 100 nM
13 | CS(=O)(=O)c1ccc(-c2cnc(N)c(-c3nc4ccc(C(F)(F)F)cc4[nH]3)n2)cc1 [Compound I-118, 5-(4-(methylsulfonyl)phenyl)-3-(6-(trifluoromethyl)-1H-benzo[d]imidazol-2-yl)pyrazin-2-amine] | ≤ 10 nM
14 | CNCc1ccc(-c2nnc(-c3nc(-c4ccc(S(=O)(=O)C(C)C)cc4)cnc3N)o2)c(OC)c1 [IA-171, 5-(4-isopropylsulfonylphenyl)-3-[5-[2-methoxy-4-(methylaminomethyl)phenyl]-1,3,4-oxadiazol-2-yl]pyrazin-2-amine] | ≤ 10 nM
15 | CN(C)CCNc1cc(-c2cnc(N)c(-c3nnc(-c4ccccc4)o3)n2)ccn1 [IA-265, N′-[4-[5-amino-6-(5-phenyl-1,3,4-oxadiazol-2-yl)pyrazin-2-yl]-2-pyridyl]-N,N-dimethyl-ethane-1,2-diamine] | 100 to 5000 nM
16 | CC(C)S(=O)(=O)c1ccc(-c2cnc(N)c(-c3nnc(-c4ccc(C5CCCN5)s4)o3)n2)cc1 (centres unmarked) [IA-147, 5-(4-isopropylsulfonylphenyl)-3-[5-(5-pyrrolidin-2-yl-2-thienyl)-1,3,4-oxadiazol-2-yl]pyrazin-2-amine] | ≤ 10 nM

Row | SMILES | Ki
17 | N#CCCN1CCN(C(=O)c2cccc(-c3cnc(N)c(C(=O)Nc4ccccc4)n3)c2)CC1 [Compound I-58, 3-amino-6-(3-(4-(2-cyanoethyl)piperazine-1-carbonyl)phenyl)-N-phenylpyrazine-2-carboxamide] | 100 to 5000 nM
18 | CN(C)C(=O)c1ccc(-c2cnc(N)c(-c3nnc(-c4ccccc4)o3)n2)c(C(F)F)c1 [IA-126, 4-[5-amino-6-(5-phenyl-1,3,4-oxadiazol-2-yl)pyrazin-2-yl]-3-(difluoromethyl)-N,N-dimethyl-benzamide] | ≤ 10 nM
19 | CNCc1csc(-c2nnc(-c3nc(-c4ccc(S(=O)(=O)C(C)C)cc4)cnc3N)o2)c1 [IA-226, 5-(4-isopropylsulfonylphenyl)-3-[5-[4-(methylaminomethyl)-2-thienyl]-1,3,4-oxadiazol-2-yl]pyrazin-2-amine] | ≤ 10 nM
20 | CN(C)C(=O)c1ccc(-c2cnc(N)c(-c3nnc(C4CC4)o3)n2)cc1 [IA-101, 4-[5-amino-6-(5-cyclopropyl-1,3,4-oxadiazol-2-yl)pyrazin-2-yl]-N,N-dimethyl-benzamide] | 100 to 5000 nM
21 | CC(C)S(=O)(=O)c1ccc(-c2cnc(N)c(-c3nnc(-c4ccc(CO)cc4)o3)n2)cc1 [IA-238, [4-[5-[3-amino-6-(4-isopropylsulfonylphenyl)pyrazin-2-yl]-1,3,4-oxadiazol-2-yl]phenyl]methanol] | ≤ 10 nM
22 | CC(C)S(=O)(=O)c1ccc(-c2cnc(N)c(-c3nnc(N4CCNCC4)o3)n2)cc1 [IA-239, 5-(4-isopropylsulfonylphenyl)-3-(5-piperazin-1-yl-1,3,4-oxadiazol-2-yl)pyrazin-2-amine] | 100 to 5000 nM
23 | CS(=O)(=O)c1ccc(-c2cnc(N)c(-c3nc4ccncc4[nH]3)n2)cc1 [Compound I-120, 3-(3H-imidazo[4,5-c]pyridin-2-yl)-5-(4-(methylsulfonyl)phenyl) pyrazin-2-amine] | 10 to 100 nM
24 | Nc1ncc(-c2ccc(C(=O)N3CCCNCC3)cc2)nc1-c1nnc(-c2ccccc2)o1 [IA-1] | ≤ 10 nM
25 | Nc1ncc(-c2ccc(S(=O)(=O)N3CCNCC3)cc2)nc1-c1nnc(-c2ccccc2)o1 [IA-24] | 10 to 100 nM
26 | CC(C)S(=O)(=O)c1ccc(-c2cnc(N)c(-c3nnc(-c4cccc([C@H](C)N)c4)o3)n2)cc1 [IA-123, 3-[5-[3-[(1S)-1-aminoethyl]phenyl]-1,3,4-oxadiazol-2-yl]-5-(4-isopropylsulfonylphenyl)pyrazin-2-amine] | ≤ 10 nM
27 | COc1ccc(-c2cnc(N)c(C(=O)Nc3ccccc3)n2)cc1 [Compound I-1, 3-amino-6-(4-methoxyphenyl)-N-phenylpyrazine-2-carboxamide] | 100 to 5000 nM
28 | CC(C)S(=O)(=O)c1ccc(-c2cnc(N)c(-c3nnc(-c4ccc(C5CCCN5)cc4)o3)n2)cc1 (centres unmarked) [IA-102, 5-(4-isopropylsulfonylphenyl)-3-[5-(4-pyrrolidin-2-ylphenyl)-1,3,4-oxadiazol-2-yl]pyrazin-2-amine] | ≤ 10 nM
29 | CN(C)C(=O)c1ccc(-c2cnc(N)c(-c3nnc(-c4ccc(CO)cc4)o3)n2)cc1 [IA-76, 4-[5-amino-6-[5-[4-(hydroxymethyl)phenyl]-1,3,4-oxadiazol-2-yl]pyrazin-2-yl]-N,N-dimethyl-benzamide] | ≤ 10 nM
30 | CN(C)C(=O)c1ccc(-c2cnc(N)c(-c3nnc(-c4ccccc4OCCO)o3)n2)cc1 [IA-196, 4-[5-amino-6-[5-[2-(2-hydroxyethoxy)phenyl]-1,3,4-oxadiazol-2-yl]pyrazin-2-yl]-N,N-dimethyl-benzamide] | ≤ 10 nM
31 | CC(C)S(=O)(=O)c1ccc(-c2cnc(N)c(-c3nnc(CC(=O)O)o3)n2)cc1 [IA-78, 2-[5-[3-amino-6-(4-isopropylsulfonylphenyl)pyrazin-2-yl]-1,3,4-oxadiazol-2-yl]acetic acid] | 10 to 100 nM
32 | Nc1ncc(-c2cnc(C(=O)N3CCCNCC3)nc2)nc1-c1nnc(-c2ccccc2)o1 [IA-37] | 10 to 100 nM

— patent US10479784B2, “Substituted pyrazin-2-amines as inhibitors of ATR kinase” (Vertex Pharmaceuticals Incorporated, priority 2008, dated 2019)
